From the supplement of paper PMC6580486

Tests used:
PCB490-5 = test system: PCB490-5 (human epithelioid sarcoma primary culture)
Procedure: (§1)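 Roche open-access kinase inhibitor screen (223 compounds) on human epithelioid sarcoma primary cultures from three spatially distinct regions of tumor PCB490. 384-well plates, 72 h, CellTiter-Glo viability; IC50 by Hill curve fit. 100000 nM = no IC50 reached. Compound ids carry a plate-well prefix, which is stripped.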

PCB490-4 = test system: PCB490-4 (human epithelioid sarcoma primary culture)
Procedure: as §1

PCB490-3 = test system: PCB490-3 (human epithelioid sarcoma primary culture)
Procedure: as §1

Structure (SMILES)	IC50 cell viability (PCB490-5) [µM]	IC50 cell viability (PCB490-4) [µM]	IC50 cell viability (PCB490-3) [µM]
CON=C1NC(=O)/C(=C/c2ccc3ncccc3c2)S1	> 100	> 100	6.8
COc1ccc(O)c(C(=O)c2ccc(C(=O)O[C@@H]3CCCNC[C@H]3NC(=O)c3ccncc3)cc2)c1F	> 100	> 100	> 100
Cn1c(=O)c(Cc2ccc(F)cc2F)cc2cnc(NC3CCOCC3)nc21	> 100	> 100	> 100
Fc1ccc(-c2c(-c3ccncc3)[nH]c3cccnc23)cc1	> 100	> 100	> 100
COc1cc[nH]c1/C=C1\C(=O)Nc2ccc(F)c(C#CC3(O)CCNCC3)c21	0.67	1	> 100
Cn1cc(C2=C(c3ccccc3[N+](=O)[O-])C(=O)NC2=O)c2ccccc21	> 100	> 100	> 100
O=C1NC(=N[C@@H]2C[C@H]2c2ccccc2)S/C1=C\c1ccc2ncccc2c1	> 100	> 100	> 100
CC(=O)N[C@@H](Cc1ccc(OP(=O)(O)O)cc1)C(=O)N[C@H]1CCC(=O)N2CCC[C@@H](C(=O)NCc3cccc4ccccc34)N2C1=O	> 100	> 100	> 100
Nc1c(C(=O)c2cccc(-c3cccnc3)c2)cnn1-c1ccc(F)cc1	> 100	> 100	> 100
Cn1cc(C2=C(c3cn(C)c4cc(C(=O)O)ccc34)C(=O)NC2=O)c2ccccc21	> 100	> 100	> 100
COc1cccc(C(=O)c2sc(Nc3ccc(N4CCN(C(C)C)CC4)cc3)nc2N)c1	> 100	> 100	> 100
Cn1cc(C2=C(Sc3ccccc3)C(=O)NC2=O)c2ccccc21	> 100	> 100	> 100
Cn1cc(C2=C(c3cn(CCCN)c4ccccc34)C(=O)NC2=O)c2ccccc21	> 100	> 100	> 100
Cn1cc(C2=C(c3cn(CCN)c4ccccc34)C(=O)NC2=O)c2ccccc21	> 100	> 100	> 100
